Where two headings read alike, the source gives them in different places.
Key:
MOR = target: T1, MOR (Rattus norvegicus, UniProt P33535); assay: Opioid receptor binding, MOR, rat brain membranes
T1 construct: from tissue

KOR = target: T2, KOR (Cavia porcellus, UniProt P41144); assay: Opioid receptor binding, KOR, guinea pig brain membranes
T2 construct: from tissue

DOR = target: T3, DOR (Rattus norvegicus, UniProt P33533); assay: Opioid receptor binding, DOR, rat brain membranes
T3 construct: from tissue
T3 sequence (P33533 whole entry): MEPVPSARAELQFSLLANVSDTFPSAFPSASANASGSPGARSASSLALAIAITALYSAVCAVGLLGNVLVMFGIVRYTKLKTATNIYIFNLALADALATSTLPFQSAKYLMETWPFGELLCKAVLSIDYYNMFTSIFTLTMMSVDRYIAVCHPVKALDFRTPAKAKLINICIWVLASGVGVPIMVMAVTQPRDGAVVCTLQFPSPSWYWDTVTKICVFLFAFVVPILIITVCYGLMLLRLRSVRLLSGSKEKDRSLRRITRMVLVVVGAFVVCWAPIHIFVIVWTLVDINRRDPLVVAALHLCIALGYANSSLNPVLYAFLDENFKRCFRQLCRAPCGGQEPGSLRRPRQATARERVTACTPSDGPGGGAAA

[1] = Binding Ki MOR, Table 2-6, rat brain membranes
[2] = Binding Ki KOR, Table 2-6, guinea pig brain membranes
[3] = Binding Ki DOR, Table 2-6, rat brain membranes
[4] = Binding Ki MOR, Table 1-6, rat brain membranes
[5] = Binding Ki KOR, Table 1-6, guinea pig brain membranes
[6] = Binding Ki DOR, Table 1-6, rat brain membranes
[7] = Binding Ki (nM) MOR, in vitro binding assay, rat brain membranes
[8] = Binding Ki (nM) KOR, in vitro binding assay, guinea pig brain membranes
[9] = Binding Ki (nM) DOR, in vitro binding assay, rat brain membranes
[10] = in vitro binding assay, rat brain membranes, read-out: Binding Ki (nM) MOR
[11] = in vitro binding assay, guinea pig brain membranes, read-out: Binding Ki (nM) KOR
[12] = in vitro binding assay, rat brain membranes, read-out: Binding Ki (nM) DOR

T1 sequence (P33535 whole entry): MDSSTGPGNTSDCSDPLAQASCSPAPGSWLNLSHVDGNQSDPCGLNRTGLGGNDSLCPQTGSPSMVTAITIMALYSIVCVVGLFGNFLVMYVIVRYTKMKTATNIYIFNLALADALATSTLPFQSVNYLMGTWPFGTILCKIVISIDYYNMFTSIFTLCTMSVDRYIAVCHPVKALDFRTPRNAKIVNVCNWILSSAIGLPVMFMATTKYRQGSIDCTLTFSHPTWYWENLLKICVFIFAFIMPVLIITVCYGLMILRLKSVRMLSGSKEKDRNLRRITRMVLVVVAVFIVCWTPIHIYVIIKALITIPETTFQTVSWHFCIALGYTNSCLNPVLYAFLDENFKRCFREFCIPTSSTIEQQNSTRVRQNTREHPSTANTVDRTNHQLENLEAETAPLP
T2 sequence (P41144 whole entry): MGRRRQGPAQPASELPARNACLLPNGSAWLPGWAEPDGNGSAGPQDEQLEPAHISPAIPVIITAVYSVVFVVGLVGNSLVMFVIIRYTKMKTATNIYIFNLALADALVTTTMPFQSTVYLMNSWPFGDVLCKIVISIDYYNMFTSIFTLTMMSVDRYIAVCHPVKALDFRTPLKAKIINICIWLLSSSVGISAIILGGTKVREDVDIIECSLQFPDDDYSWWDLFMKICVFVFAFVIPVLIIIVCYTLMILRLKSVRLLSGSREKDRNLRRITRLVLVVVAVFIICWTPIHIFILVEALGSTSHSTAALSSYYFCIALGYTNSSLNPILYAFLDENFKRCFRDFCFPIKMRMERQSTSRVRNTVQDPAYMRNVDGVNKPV

Row | Structure (SMILES) | Ki (MOR; [1]) [nM] | Ki (KOR; [2]) [nM] | Ki (DOR; [3]) [nM] | Ki (MOR; [4]) [nM] | Ki (KOR; [5]) [nM] | Ki (DOR; [6]) [nM] | further results
1 | CO[C@@]12CC[C@H](N[C@@H](Cc3ccccc3)C(=O)O)[C@@H]3Oc4c(O)ccc5c4[C@@]31CCN(CC1CC1)[C@@H]2C5 [Compound 57] | 0.51 | 4.21 | 1.17 | – | – | – | –
2 | CO[C@@]12CC[C@@H](N[C@@H](Cc3ccccc3)C(=O)O)[C@@H]3Oc4c(O)ccc5c4[C@@]31CCN(CC1CC1)[C@@H]2C5 [Compound 58] | – | – | – | – | – | – | Ki (MOR; Table 2-6, rat brain membranes, read-out: Binding Ki MOR): 1.23 nM; Ki (KOR; Table 2-6, guinea pig brain membranes, read-out: Binding Ki KOR): 8.42 nM; Ki (DOR; Table 2-6, rat brain membranes, read-out: Binding Ki DOR): 2.02 nM
3 | O=C(O)CN[C@H]1CC[C@@]2(O)[C@H]3Cc4ccc(O)c5c4[C@@]2(CCN3CC2CC2)[C@H]1O5 [Compound 67] | – | – | – | 0.88 | 2.81 | 13.1 | –
4 | CO[C@@]12CC[C@@H](N[C@@H](C)C(=O)O)[C@@H]3Oc4c(O)ccc5c4[C@@]31CCN(CC1CC1)[C@@H]2C5 [Compound 72] | 2.13 | 11.5 | 5.8 | 2.13 | 11.5 | 5.8 | –
5 | CO[C@@]12CC[C@@H](N[C@@H](CC(=O)O)C(=O)O)[C@@H]3Oc4c(O)ccc5c4[C@@]31CCN(CC1CC1)[C@@H]2C5 [Compound 73] | 2.24 | 11.7 | 0.64 | 2.24 | 11.7 | 0.64 | –
6 | COC12CCC(NC(CCC(=O)O)C(=O)O)C3Oc4c(O)ccc5c4C31CCN(CC1CC1)C2C5 (stereo not drawn) [Compound 74] | 1.93 | 6.66 | 3.61 | 1.93 | 6.66 | 3.61 | –
7 | CO[C@@]12CC[C@@H](N[C@@H](CCC(=O)O)C(=O)O)[C@@H]3Oc4c(O)ccc5c4[C@@]31CCN(CC1CC1)[C@@H]2C5 [Compound 75] | 3.35 | 12.9 | 2.77 | 3.35 | 12.9 | 2.77 | –
8 | CO[C@@]12CC[C@H](N[C@@H](CC(C)C)C(=O)O)[C@@H]3Oc4c(O)ccc5c4[C@@]31CCN(CC1CC1)[C@@H]2C5 [Compound 76] | 0.72 | 7.87 | 2.2 | – | – | – | –
9 | CO[C@@]12CC[C@@H](N[C@@H](CC(C)C)C(=O)O)[C@@H]3Oc4c(O)ccc5c4[C@@]31CCN(CC1CC1)[C@@H]2C5 [Compound 77] | 1.96 | 11 | 1.13 | – | – | – | –
10 | CC[C@H](C)[C@H](N[C@@H]1CC[C@@]2(OC)[C@H]3Cc4ccc(O)c5c4[C@@]2(CCN3CC2CC2)[C@H]1O5)C(=O)O [Compound 78] | 1.62 | 9.49 | 1.44 | – | – | – | –
11 | CC[C@H](N[C@@H]1CC[C@@]2(OC)[C@H]3Cc4ccc(O)c5c4[C@@]2(CCN3CC2CC2)[C@H]1O5)C(=O)O [Compound 79] | – | – | – | 3.39 | 19.1 | 6.2 | –
12 | CCOC(=O)CN[C@H]1CC[C@@]2(OC)[C@H]3Cc4ccc(O)c5c4[C@@]2(CCN3C)[C@H]1O5 [HS730-Et ester] | – | – | – | – | – | – | Ki (MOR; [7]): 0.28 nM; Ki (KOR; [8]): 8.57 nM; Ki (DOR; [9]): 0.96 nM
13 | CO[C@@]12CC[C@H](NCC(=O)OCc3ccccc3)[C@@H]3Oc4c(O)ccc5c4[C@@]31CCN(C)[C@@H]2C5 [HS730-benzyl ester] | – | – | – | – | – | – | Ki (MOR; [7]): 0.19 nM; Ki (KOR; [8]): 0.47 nM; Ki (DOR; [9]): 0.91 nM
14 | CCCCCCCCOC(=O)CN[C@H]1CC[C@@]2(OC)[C@H]3Cc4ccc(O)c5c4[C@@]2(CCN3C)[C@H]1O5 [HS730-nOc ester] | – | – | – | – | – | – | Ki (MOR; [10]): 1.29 nM; Ki (KOR; [11]): 2.97 nM; Ki (DOR; [12]): 3.23 nM
15 | CO[C@@]12CC[C@@H](NCC(=O)OCc3ccccc3)[C@@H]3Oc4c(O)ccc5c4[C@@]31CCN(C)[C@@H]2C5 [HS731-benzyl ester] | – | – | – | – | – | – | Ki (MOR; [7]): 0.29 nM; Ki (KOR; [11]): 2.86 nM; Ki (DOR; [12]): 0.74 nM
16 | CCCCCCCCOC(=O)CN[C@@H]1CC[C@@]2(OC)[C@H]3Cc4ccc(O)c5c4[C@@]2(CCN3C)[C@H]1O5 [HS731-nOc ester] | – | – | – | – | – | – | Ki (MOR; [10]): 2.56 nM; Ki (KOR; [11]): 3.87 nM; Ki (DOR; [12]): 2.71 nM
17 | CO[C@@]12CC[C@@H](NCC(=O)OC(C)(C)C)[C@@H]3Oc4c(O)ccc5c4[C@@]31CCN(C)[C@@H]2C5 [HS731-t-Bu ester] | – | – | – | – | – | – | Ki (MOR; [7]): 1.3 nM; Ki (KOR; [11]): 56.2 nM; Ki (DOR; [12]): 0.68 nM

— patent publication US20170217976A1, “6-(AMINO ACID)-MORPHINAN DERIVATIVES IN COMBINATION WITH PERMEATION […] FOR USE AS AN ORALLY, […], TRA[…] NASALLY AD[…]” (C[…], priority 2014, published 2017)
